Reference: publication PMC9447362
Read-outs that look alike come from different tables or passages of the source.

Tests used:
Vero E6 cells [1] = conditions: African green monkey
P4 G4 [2] = assay: Protein expression from pCAG-Flag vector with P4-WT or P4-Mut in HeLa and HEK293T cells (western blotting); assay type: cell-based, SARS-CoV-2; conditions: concentration-dependent
P4 G4 [3] = assay type: cell-based, SARS-CoV-2; conditions: 10 μM TMPyP4 or 2.5 μM PDP
P4 G4 [4] = assay: In vitro translation (IVT) assays; assay type: biochemical, SARS-CoV-2
in vitro = conditions: African green monkey
P4 G4 (P4-WT RNA) = assay: CD spectra and CD melting of P4-WT with G4-specific ligands; assay type: binding, SARS-CoV-2
Method: For CD spectra and CD melting experiments, the DNA or RNA oligonucleotide samples pre-heated at 95 °C for 10 min were slowly cooled to room temperature, and then were incubated at 4 °C for 24 h. The samples were detected by JASCO J-810 spectropolarimeter equipped with a temperature-controlled water bath. In CD melting experiments, versus temperatures were collected at a heating rate of 1 °C/min.

SARS-CoV-2 [5] = assay: microbe, parasite or virus in culture; assay type: cell-based; conditions: for EC50: read-out: EC50 (half-maximal effective doses), antiviral; for EC90: read-out: EC90 (90% maximal effective doses), antiviral; for protein levels of nucleoprotein, Vero E6 cells: western blotting
RNA with P4 G4 = assay: Cell-based RNA replication assays with SARS-CoV-2 RdRp (nsp12, nsp7, nsp8) in HEK293T cells, qRT-PCR; conditions: compared with P4-Mut, dose-dependent
Text: Cell-based RNA replication assay system was applied[43]–[45]. The plasmids nsp12, nsp7 and nsp8 were used to express codon-optimized Flag-nsp12, Flag-nsp7 and Flag-nsp8, respectively, all of which contain a Flag tag at the C-terminus. To generate the SARS-CoV-2 transcripts with P4 G4 site for RNA replication assays, 5’ untranslated region (UTR)-P4 G4 -3’ UTR was first synthesized, then inserted into the pGEM-T esay vector. And the SARS-CoV-2 RNA with P4 G4 site was produced using T7 RNA polymerases from a standard in vitro transcription kit.
HEK293T cells were transfected with the RNA with P4 G4 site, nsp12, nsp7, and nsp8 plasmids at the ratio of 1:10:30:30. At 12 h post transfection, cells were re-seeded in 24-well plates (4 × 10^4/well) and treated with PDP or TMPyP4. After 48 h incubation, cells were collected and measured for RNA levels by qRT-PCR assays.

SARS-CoV-2 [6] = assay type: cell-based, SARS-CoV-2 (BetaCoV/Beijing/IME-BJ05-2020); conditions: for protein levels of nucleoprotein, Calu-3 cells: western blotting
[7] = hamster plasma, 30 mg/kg i.n., single dose
P13 G4 = assay: RNA replication assay, RNA with P13 G4 in HEK293T cells; assay type: cell-based, SARS-CoV-2
P3 G4 = assay type: cell-based, SARS-CoV-2; conditions: 10 μM, HEK293T cells
SARS-CoV-2 [8] = conditions: mouse, in vivo
P14 G4 = assay: RNA replication assay, RNA with P14 G4 in HEK293T cells; assay type: cell-based, SARS-CoV-2
Vero E6 cells [9] = assay: Cell viability, SRB assays; conditions: Vero E6 cells, SRB assays
SARS-CoV-2 [10] = assay: In vivo antiviral studies in SARS-CoV-2-infected Syrian hamsters
Method: The in vivo antiviral studies were carried out in an ABSL3 facility in Changchun
Veterinary Research Institute, Chinese Academy of Agricultural Sciences. All animal
studies were performed in strict accordance with the guidelines set by the Chinese
Regulations of Laboratory Animals and Laboratory Animal-Requirements of
Environment and Housing Facilities. All animals used in this study were chosen
antiviral in SARS-CoV-2 infection. First, we use a model of Syrian hamsters; and
second, we used a model of human angiotensin-converting enzyme 2 (hACE2)-KI/IOZ
10) or saline (n = 5) 1 h prior to infection. Then the hamsters were anesthetized and
infected intranasally with 105 TCID50 of SARS-CoV-2. For the low challenge dose
For the high challenge dose
The conditions of hamsters
including body weight were monitored daily until sacrifice. 3 days post infection (dpi),
the hamsters were humanely euthanized. The nasal wash, nasal tissues and lung tissues
were harvested for viral titration and pathological examination. Briefly, the nasal
tissues and lung tissues were weighed, and 1 gram of each tissue was placed into 1
mL of PBS containing 100 U/mL penicillin, making 10% weight/volume
homogenates. The tissue samples were homogenized by Tissue Lyser (QIAGEN,
Germany) and centrifuged at 8,000 rpm. The supernatants were then collected and
inoculated into Vero E6 cells, and viral RNA copy numbers and viral titration were
determined by qRT-PCR and TCID50, respectively. Meanwhile, the lungs were fixed
in formalin, and the fixed tissues were embedded in paraffin and stained with H&E
for pathological examination.
therapeutic treatment in vivo, the hamsters were pre-infected with the virus (105
intraperitoneal, i.p., 15 mg/kg)) 1 h prior to infection. Then the hamsters were
anesthetized and infected intranasally with 105 TCID50 of SARS-CoV-2. The conditions
of hamsters including body weight were monitored daily until sacrifice. 3 dpi, the
hamsters were humanely euthanized. The nasal wash, nasal tissues and lung tissues
were harvested for viral titration and pathological examination.
Lung histological analysis
Lung histological analysis was examined by an experienced pathologist. H&E stained
sections of lung from hamsters and mice were examined by implementing a semi
quantitative, 5 point grading scheme (0-within normal limits, 1-mild, 2-moderate,

[11] = cited from earlier work
P6 G4 = assay type: cell-based, SARS-CoV-2; conditions: 10 μM, HEK293T cells
[12] = 30 mg/kg i.n. once daily for 7 consecutive days
P2 G4 = assay type: cell-based, SARS-CoV-2; conditions: 10 μM, HEK293T cells
P1 = assay type: cell-based, SARS-CoV-2; conditions: 10 μM, HEK293T cells
[13] = Cell viability, SRB assays; conditions: African green monkey
[14] = Severe acute respiratory syndrome coronavirus 2, Vero C1008, Vero E6 cells, 10^3 TCID50 virus/mL, 72 h post infection, viral RNA copies/mL
[15] = dose-dependent, 72 h post infection
[16] = hamster, 15 mg/kg i.p., day 3 after infection

SMILES: NCCOc1cc(C(=O)Nc2cc(OCCN3CCCC3)c3ccccc3n2)nc(C(=O)Nc2cc(OCCN3CCCC3)c3ccccc3n2)c1 [PDP]
- CC10 (10% cytotoxic concentration) (Vero E6 cells [1]): 2.84 µM
- protein levels of P4-WT (P4 G4 [2]): decreased the protein levels of P4-WT
- P4-WT EGFP fluorescence intensity (P4 G4 [3]): inhibited the P4-WT EGFP fluorescence intensity
- P4-Mut EGFP fluorescence intensity (P4 G4 [3]): not P4-Mut
- IVT of P4-WT (P4 G4 [4]; P4-WT): inhibited the IVT of P4-WT
- CC50 (in vitro): 4.9 µM
- effect on the thermal stability of P4 G4 (P4 G4 (P4-WT RNA)): significantly enhanced the thermal stability
- SI (selectivity index) (SARS-CoV-2 [5]): 7.78
- EC50 (SARS-CoV-2 [5]; [14]): 0.63 µM
- EC90 (SARS-CoV-2 [5]; [14]): > 2 µM
- viral RNA copies and viral titers in Vero E6 cells (SARS-CoV-2 [5]; [15]): significantly reduced viral RNA copies and viral titers
- replication of P4-WT RNA (RNA with P4 G4): significantly inhibit the replication of P4-WT

SMILES: C[n+]1ccccc1-c1c2nc(c(-c3cccc[n+]3C)c3ccc([nH]3)c(-c3cccc[n+]3C)c3ccc([nH]3)c(-c3cccc[n+]3C)c3nc1C=C3)C=C2 [TMPyP2]
- protein levels of P4-WT (P4 G4 [2]): no effects
- P4-WT EGFP fluorescence intensity (P4 G4 [3]): no effects
- protein levels of nucleoprotein, Calu-3 cells (SARS-CoV-2 [6]; 100 μM): not TMPyP2
- effect on the thermal stability of P4 G4 (P4 G4 (P4-WT RNA)): no effects on the thermal stability
- protein levels of nucleoprotein, Vero E6 cells (SARS-CoV-2 [5]; 100 μM): not TMPyP2
- replication of P4-WT RNA (RNA with P4 G4): no effects

SMILES: C[n+]1ccc(-c2c3nc(c(-c4cc[n+](C)cc4)c4ccc([nH]4)c(-c4cc[n+](C)cc4)c4nc(c(-c5cc[n+](C)cc5)c5ccc2[nH]5)C=C4)C=C3)cc1 [TMPyP4, 5,10,15,20-tetrakis-(N-methyl-4-pyridyl)porphine]
- Cmax [7]: 17880 ng/mL
- area under the curve (AUC) [7]: 167.32 h⋅μg/mL
- half-life (T1/2) [7]: 6.36 h
- RNA replication, RNA with P13 G4 (P13 G4): suppressed RNA replication
- EGFP expression, P3-EGFP (P3 G4): inhibited EGFP expression
- viral loads in the nasal turbinate and lung tissues (SARS-CoV-2 [8]): significantly decreased the viral loads in the nasal turbinate and lung tissues
- RNA replication, RNA with P14 G4 (P14 G4): suppressed RNA replication
- CC10 (10% cytotoxic concentration) (Vero E6 cells [9]): 727.7 µM
- CC50 (Vero E6 cells [9]; read-out: CC50 (half-cytotoxic concentration)): > 1000 µM
- protein levels of P4-WT (P4 G4 [2]): decreased the protein levels of P4-WT
- antiviral synergy with remdesivir in hamsters (SARS-CoV-2 [10]; TMPyP4 15 mg/kg i.n. combined with remdesivir 15 mg/kg i.p.): did not exhibit antiviral synergy with remdesivir in hamsters
- decrease of mean viral loads (viral RNA copies/mL and TCID50/mL) in nasal wash, nasal turbinate and lung tissues (SARS-CoV-2 [10]; hamster, in vivo): 2–4 log10
- lung damage (histopathology) (SARS-CoV-2 [10]; hamster, in vivo): significantly ameliorate lung damage
- mRNA expression of inflammatory-associated genes in the lungs (SARS-CoV-2 [10]; hamster, in vivo): reduced mRNA expression of inflammatory-associated genes in the lungs
- maximal viral RNA copies reduction in the nasal wash, nasal turbinate and lung tissues (SARS-CoV-2 [10]; hamster, in vivo, 15 mg/kg): ~ 3 log10
- viral titers reduction in the nasal wash, nasal turbinate and lung tissues (SARS-CoV-2 [10]; hamster, in vivo, 15 mg/kg): ~ 3.5 log10
- lung damage, therapeutic treatment (SARS-CoV-2 [10]; hamster, in vivo, 30 mg/kg): could ameliorate lung damage
- viral loads in nasal wash, nasal turbinate and lung tissues, therapeutic treatment (SARS-CoV-2 [10]; hamster, in vivo, 30 mg/kg): significantly decreased the viral loads
- toxicity in the animals for short-term treatment [11]: no noticeable toxicity
- P4-WT EGFP fluorescence intensity (P4 G4 [3]): inhibited the P4-WT EGFP fluorescence intensity
- P4-Mut EGFP fluorescence intensity (P4 G4 [3]): not P4-Mut
- EGFP expression, P6-EGFP (P6 G4): inhibited EGFP expression
- toxicity in hamsters [12]: no noticeable toxicity in the hamsters
- toxicity in the lung tissues of hamsters [12]: no noticeable toxicity in the lung tissues of hamsters
- IVT of P4-WT (P4 G4 [4]): inhibited the IVT of P4-WT
- protein levels of nucleoprotein, Calu-3 cells (SARS-CoV-2 [6]; 100 μM): significantly suppress the protein levels of nucleoprotein
- mRNA expression of pro-inflammatory cytokines and chemokines (SARS-CoV-2 [6]; Calu-3 cells, 100 μM, qRT-PCR): decrease the mRNA expression of pro-inflammatory cytokines and chemokines
- virus infection in Calu-3 cells (SARS-CoV-2 [6]; human lung epithelial Calu-3 cells): inhibited virus infection efficiently
- EGFP expression, P2-EGFP (P2 G4): inhibited EGFP expression
- effect on the thermal stability of P4 G4 (P4 G4 (P4-WT RNA)): significantly enhanced the thermal stability
- EGFP expression, P1-EGFP (P1): not P1
- SI (selectivity index) (SARS-CoV-2 [5]): > 112.74
- antiviral activity of TMPyP4 after pre-transfection of ASOs targeting viral G4s (SARS-CoV-2 [5]): significantly inhibited by ASO targeting viral G4s
- maximal viral RNA copies reduction in the Vero E6 cell culture supernatant (SARS-CoV-2 [5]): ~ 7 log10
- maximal viral RNA copies reduction in the Vero E6 cell lysate (SARS-CoV-2 [5]): ~ 6 log10
- maximal viral titers reduction in the culture supernatant of Vero E6 cell (SARS-CoV-2 [5]): ~ 6 log10
- viral RNA copies and viral titers in Vero E6 cells (SARS-CoV-2 [5]): significantly reduced viral RNA copies and viral titers
- viral loads in Vero E6 cells pre-infected with SARS-CoV-2 (SARS-CoV-2 [5]): significantly decreased the viral loads
- protein levels of nucleoprotein, Vero E6 cells (SARS-CoV-2 [5]; 100 μM): significantly suppress the protein levels of nucleoprotein
- time-of-addition: stage of action (SARS-CoV-2 [5]; Vero E6 cells, 100 μM): functioned at a stage post SARS-CoV-2 entry
- antiviral synergy with remdesivir in vitro (SARS-CoV-2 [5]; combination of TMPyP4 and remdesivir): did not exhibit antiviral synergy
- EC50 (SARS-CoV-2 [5]): 8.87 µM
- EC90 (SARS-CoV-2 [5]): 13.2 µM
- replication of P4-WT RNA (RNA with P4 G4): significantly inhibit the replication of P4-WT

SMILES: CCC(CC)COC(=O)[C@H](C)N[P@](=O)(OC[C@H]1O[C@@](C#N)(c2ccc3c(N)ncnn23)[C@H](O)[C@@H]1O)Oc1ccccc1 [remdesivir]
- CC10 (10% cytotoxic concentration) (Vero E6 cells [9]): 1.04 µM
- CC50 [13]: > 100 µM
- maximal viral RNA copies reduction in the nasal wash, nasal turbinate and lung tissues (SARS-CoV-2 [10]; [16]): 1 log10
- viral titers reduction in the nasal wash, nasal turbinate and lung tissues (SARS-CoV-2 [10]; [16]): ~ 1.5 log10
- maximal viral titers reduction in the culture supernatant of Vero E6 cell (SARS-CoV-2 [5]; 72 h post infection, TCID50): ~ 3 log10
- maximal viral RNA copies reduction in the Vero E6 cell culture supernatant (SARS-CoV-2 [5]; 72 h post infection, qRT-PCR): ~ 4 log10
- maximal viral RNA copies reduction in the Vero E6 cell lysate (SARS-CoV-2 [5]; 72 h post infection, qRT-PCR): 3 log10
- EC50 (SARS-CoV-2 [5]; [14]): 1.33 µM
- EC90 (SARS-CoV-2 [5]; [14]): 2.42 µM
- SI (selectivity index) (SARS-CoV-2 [5]; Vero E6 cells, CC50/EC50): > 75.19
- viral RNA copies and viral titers in Vero E6 cells (SARS-CoV-2 [5]; [15]): significantly reduced viral RNA copies and viral titers
